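These data come from cells grown in 96-well plates and exposed to compound for 48 hours at five concentrations. The concentration for 50% growth inhibition is given as GI50.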 The source made the active and inactive calls. Rule as the data show it: active = GI50 up to about 1.1 µM and inactive = higher.
Tests used:
Assay in all cases: NCI anticancer screen, dose series, 48 h
A498 = tested on: A498
TK-10 = tested on: TK-10
HT-29 = tested on: HT-29
K562 = tested on: K562
786-0 = tested on: 786-0
MDA-MB-231 = tested on: MDA-MB-231
SK-MEL-28 = tested on: SK-MEL-28
Malme-3M = tested on: Malme-3M
HCT-116 = tested on: HCT-116
IGROV-1 = tested on: IGROV-1
NCI-H460 = tested on: NCI-H460
SK-MEL-5 = tested on: SK-MEL-5
MDA-MB-435 = tested on: MDA-MB-435
NCI/ADR-RES = tested on: NCI/ADR-RES
NCI-H226 = tested on: NCI-H226
CCRF-CEM = tested on: CCRF-CEM
U-251 = tested on: U-251
T47D = tested on: T47D
MOLT-4 = tested on: MOLT-4
KM-20L2 = tested on: KM-20L2

Compound | GI50 (A498) | GI50 (TK-10) | GI50 (HT-29) | GI50 (K562) | GI50 (786-0) | GI50 (MDA-MB-231) | GI50 (SK-MEL-28) | GI50 (Malme-3M) | GI50 (HCT-116) | GI50 (IGROV-1) | GI50 (NCI-H460) | GI50 (SK-MEL-5) | GI50 (MDA-MB-435) | GI50 (NCI/ADR-RES) | GI50 (NCI-H226) | GI50 (CCRF-CEM) | GI50 (U-251) | GI50 (T47D) | GI50 (MOLT-4) | GI50 (KM-20L2)
Fc1ccc(NC(=S)SCc2ccc3c(c2)OCO3)cc1F | 17.4 µM (inactive) | 30.1 µM (inactive) | 20.2 µM (inactive) | 19.1 µM (inactive) | 37.2 µM (inactive) | 31.1 µM (inactive) | 3.76 µM (inactive) | 24.4 µM (inactive) | 49.3 µM (inactive) | 18.6 µM (inactive) | 28 µM (inactive) | 16 µM (inactive) | 20.6 µM (inactive) | 25.2 µM (inactive) | 37.7 µM (inactive) | 23.4 µM (inactive) | 17.4 µM (inactive) | 10.8 µM (inactive) | 18.7 µM (inactive) | 
COC(=O)/C(=N/Nc1cccc(Cl)c1)C(C(=O)C(=O)Nc1cccc(Cl)c1C)c1nc2ccccc2nc1C (centres undefined) | > 100 µM (inactive) | > 100 µM (inactive) | > 100 µM (inactive) | 32.2 µM (inactive) | > 100 µM (inactive) |  | 92.3 µM (inactive) | 55 µM (inactive) | 62.5 µM (inactive) | 41.7 µM (inactive) | 48.8 µM (inactive) | 36 µM (inactive) |  |  |  | 62.5 µM (inactive) |  |  | > 100 µM (inactive) | 32 µM (inactive)
CC(C)=CCC[C@@H](C)C1=C(Nc2ccccc2F)C(=O)C(C)=C(O)C1=O | 6.78 µM (inactive) | 5.82 µM (inactive) | 4.74 µM (inactive) | 4.45 µM (inactive) | 5.65 µM (inactive) | 4.53 µM (inactive) | 17.6 µM (inactive) | 7.6 µM (inactive) | 4.58 µM (inactive) | 4.54 µM (inactive) | 3.92 µM (inactive) | 3.18 µM (inactive) | 6.22 µM (inactive) | 2.55 µM (inactive) | 5.3 µM (inactive) | 0.869 µM (active) | 8.49 µM (inactive) | 13.6 µM (inactive) | 5.46 µM (inactive) | 
COC1CC(OS(=O)(=O)c2ccc([N+](=O)[O-])cc2)C(OC(=O)c2ccccc2)C(C)O1 (centres undefined) | 88.7 µM (inactive) | > 100 µM (inactive) | > 100 µM (inactive) | > 100 µM (inactive) | 32.2 µM (inactive) |  | > 100 µM (inactive) | > 100 µM (inactive) | > 100 µM (inactive) | > 100 µM (inactive) | > 100 µM (inactive) | > 100 µM (inactive) |  |  |  | > 100 µM (inactive) | > 100 µM (inactive) |  | > 100 µM (inactive) | > 100 µM (inactive)
NCCn1ccc(NC(c2ccccc2)(c2ccccc2)c2ccccc2)nc1=O | 65.5 µM (inactive) | 30 µM (inactive) | 16.9 µM (inactive) | 20.1 µM (inactive) | 17.3 µM (inactive) |  | 20.2 µM (inactive) | 18.6 µM (inactive) | 18.2 µM (inactive) | 40.7 µM (inactive) | 20.3 µM (inactive) |  |  |  | 15.8 µM (inactive) |  | 20.7 µM (inactive) |  | 19 µM (inactive) | 15.7 µM (inactive)
CCCOP1(=O)C=C(O)C(Cl)=C(C)C1 (centres undefined) |  | > 100 µM (inactive) | > 100 µM (inactive) | > 100 µM (inactive) | > 100 µM (inactive) |  | > 100 µM (inactive) | > 100 µM (inactive) | > 100 µM (inactive) | > 100 µM (inactive) | > 100 µM (inactive) | > 100 µM (inactive) |  |  | > 100 µM (inactive) | > 100 µM (inactive) | > 100 µM (inactive) |  | > 100 µM (inactive) | > 100 µM (inactive)
CCC1NC(=O)C1NC(=O)OC (centres undefined) | > 100 µM (inactive) | > 100 µM (inactive) | > 100 µM (inactive) | > 100 µM (inactive) | > 100 µM (inactive) | > 100 µM (inactive) | > 100 µM (inactive) | > 100 µM (inactive) | > 100 µM (inactive) | > 100 µM (inactive) | > 100 µM (inactive) | > 100 µM (inactive) | > 100 µM (inactive) | > 100 µM (inactive) | > 100 µM (inactive) | > 100 µM (inactive) | > 100 µM (inactive) | > 100 µM (inactive) | > 100 µM (inactive) | 
CCCCC[C@H]1CC=CC(=O)O1 | 1.82 µM (inactive) | 9.48 µM (inactive) | 4.03 µM (inactive) | 5.48 µM (inactive) | 3.1 µM (inactive) | 10 µM (inactive) | 7.26 µM (inactive) | 15.5 µM (inactive) | 3.16 µM (inactive) | 5.27 µM (inactive) | 5.35 µM (inactive) | 7.78 µM (inactive) | 7.33 µM (inactive) | 5.92 µM (inactive) | 4.13 µM (inactive) | 4.74 µM (inactive) | 8.3 µM (inactive) | 4.55 µM (inactive) | 2.34 µM (inactive) | 
